Patent US20160237450A1, “METHOD FOR ENHANCING DROUGHT TOLERANCE IN PLANTS” (Plant Response Biotech S.L., priority 2015, published 2016)

Legend:
Type in all cases: in vivo
[1] = system: broccoli plants ('Parthenon'); assay: Broccoli inflorescence production under limited water; conditions: 30% water; for % Control (inflorescence weight): versus untreated 30% water
Text: TMAO di-hydrate applied exogenously which increases the endogenous content of TMAO as if the plants were overexpressing an FMO protein at least 4 times increases plant production in broccoli under limited water irrigation. ‘Parthenon’ broccoli seeds were sown, grown and treated as described above. Spray and irrigation treatments with 1 g/L TMAO di-hydrate increased plant production, as measured by the average weight of the crown plus stems in grams.

[2] = system: tomato plants ('Moneymaker'); assay: Tomato stem size under limited water irrigation
Description: For each drought or limited water experiment 480 seeds (of either pepper, barley, tomato, cucumber or corn) were sown, producing 384 plants in 512 cm^3 pots (4 plants per pot). Plants were grown under chamber conditions at 21° C. for 3 weeks. Then, the plants were moved to a greenhouse, where average temperature was 25° C. to 28° C. Spray and irrigation treatments as described herein were done when the plants had two extended leaves and the next pair of leaves were coming up.
Treatments: Twelve pots (containing 48 plants) were irrigated with 40 ml of either: water, 0.1 g/L TMAO di-hydrate solution, 1.0 g/L TMAO di-hydrate solution, or 5.5 g/L TMAO di-hydrate solution. Another set of 12 pots containing 48 plants were sprayed with 40 ml of either water (3.3 ml in average per pot), a solution containing 0.1 g/L TMAO di-hydrate solution, 1.0 g/L TMAO di-hydrate, or 5 g/L, or 10 g/L TMAO di-hydrate. Further sets of 12 pots containing 48 plants were both sprayed with each initial solution TMAO di-hydrate solution and further irrigated with the same TMAO di-hydrate solutions used in the control water sprayed plants. All pots were also watered with 40 ml of water. The sprayed plants were watered with the same volume of water as the “irrigated plants). The pots were located on plastic glass to maintain constant moisture and to avoid liquid spillage during watering. Trays containing the pots were located on greenhouse tables. The distribution of the trays on the table and the position on the pots in the tray was changed every week to avoid position effects.
After the treatments described above, for the “limited water” experiments plants were watered with 20 ml of water or solution instead of 40 ml when the first plants started to wilt. The stem length was recorded as analyzed for the limited water experiments in which the plants are watered with 50-30% of the water that the plant requires.
TMAO di-hydrate applied exogenously which increases the endogenous content of TMAO as if the plants were overexpressing an FMO protein at least 4 times increases plant stem size in tomato under limited water irrigation. ‘Moneymaker’ tomato seeds were sown, grown and treated as described.

corn plants ('FAO700') [3] = assay: Corn chlorophyll content under limited water; conditions: 30% water; 1 g/L spray; after three months
Description: (§1) In order to determine the drought or drought stress tolerance after seed treatments with TMAO di-hydrate and germination in the presence of TMAO di-hydrate, barley “Hispanic” seeds, corn “FAO700” seeds, and “Sambro” sunflower seeds were surface sterilized for 3 minutes in ethanol 70%, then rinsed twice and finally included in a pre-treatment solution of 1 g/L TMAO di-hydrate solution (or just water) under shaking for 3 hours at a dose of 1 litre per Kg of seeds. Then, the seeds were sown in randomized plots of 10 sqm in a surface of 2.000 sqm. Chlorophyll content was measured 1 month before harvest. In corn irrigation was applied in half of the plots while the other half only received an initial establishment watering. The barley plots received 200 l of rain per m^2 through the growing season. Some of the plots received a second spray treatment with 1 g/liter of TMAO. […] At least 3 independent plants were treated per experiment.
TMAO di-hydrate applied exogenously increases plant production in corn which increases the endogenous content of TMAO as if the plants were overexpressing an FMO protein at least 4 times under limited water irrigation. ‘FAO700” corn seeds were sown, grown and treated as described above. […] After this time, the absorbance of the suspension (OD663) was determined as an indicator of chlorophyll concentration.

sunflower plants = assay: Sunflower field chlorophyll content and seed production after seed treatment; conditions: seed treatment 1 g/l/Kg, natural stress
Description: as §1
TMAO di-hydrate applied exogenously which increases the endogenous content of TMAO as if the plants were overexpressing an FMO protein at least 4 times increases plant production in sunflower plants grown in the field without external irrigation. ‘Sambra” sunflower seeds were sown, grown and treated as described above. Seed treatment (1 g/l/Kg TMAO) increased plant chlorophyll content and seed production. […] Both chlorophyll and weight differences between control and TMAO groups are statistically significant. Relative chlorophyll content values are obtained by optical absorbance in two different wavebands: 653 nm (chlorophyll) and 931 nm (Near Infra-Red).

corn plants ('FAO700') [4] = assay: Corn number of green leaves under limited water; conditions: 30% water
Description: as §1
TMAO di-hydrate applied exogenously which increases the endogenous content of TMAO as if the plants were overexpressing an FMO protein at least 4 times increases plant production in corn under limited water irrigation. Plants were irrigated with 30% of the water they normally require. ‘FAO700’ corn seeds were sown, grown and treated as described. Spray treatments with 1 g/L TMAO increased plant number of green leaves.

corn plants ('FAO700') [5] = assay: Corn grains per cob under limited water; conditions: 30% water
Description: as §1
TMAO di-hydrate applied exogenously which increases the endogenous content of TMAO as if the plants were overexpressing an FMO protein at least 4 times increases plant production in corn under limited water irrigation. ‘FAO700’ corn seeds were sown, grown and treated as described above. Spray treatments with 1 g/L TMAO di-hydrate increased plant grain production.

## C[N+](C)(C)[O-].O.O [TMAO di-hydrate, trimethylamine N-oxide di-hydrate]
[1]; 1 g/L irrigation
  AVERAGE WEIGHT (grams/inflorescence): 85.2 ± 4.6 grams/inflorescence
  % Control (inflorescence weight): 106%
[1]; 1 g/L spray
  AVERAGE WEIGHT (grams/inflorescence): 87.3 ± 6.7 grams/inflorescence
  % Control (inflorescence weight): 108%
[2]; initial treatment 0.1 g/L, irrigations 1 g/L
  AVERAGE STEM SIZE (cm): 12.32 ± 0.56 cm
[2]; initial treatment 0.1 g/L, irrigations water
  AVERAGE STEM SIZE (cm): 11.06 ± 0.55 cm
[2]; initial treatment 1 g/L, irrigations 1 g/L
  AVERAGE STEM SIZE (cm): 13.77 ± 0.55 cm
[2]; initial treatment 1 g/L, irrigations water
  AVERAGE STEM SIZE (cm): 11.59 ± 0.55 cm
[2]; initial treatment 5 g/L, irrigations 1 g/L
  AVERAGE STEM SIZE (cm): 14.6 ± 0.55 cm
[2]; initial treatment 5 g/L, irrigations water
  AVERAGE STEM SIZE (cm): 14.2 ± 0.56 cm
[2]; initial treatment water, irrigations 1 g/L
  AVERAGE STEM SIZE (cm): 12.97 ± 0.55 cm
Corn plants ('FAO700') [3]
  OD663 ABSORVANCE (CHLOROPHYLL a): 0.7278 ± 0.076
Sunflower plants
  % GAIN/LOSS RESPECT TO THE CONTROL, chlorophyll content: 30%
  % GAIN/LOSS RESPECT TO THE CONTROL, weight of seeds from 1 plant: 77.7%
  C[…] (OD663/OD931, AVERAGE VALUE): 21.17 ± 0.54
  WEIGHT (GRAMS) OF SEEDS FROM 1 PLANT, AVERAGE VALUE: 161.3 ± 13.1 GRAMS
Corn plants ('FAO700') [4]; 1 g/L (rows 3 and 4: spray, seed)
  increase in biomass production shown in green leaf production over untreated plants with 30% irrigation: 47%
Corn plants ('FAO700') [4]; 1 g/L seed treatment
  AVERAGE NUMBER OF GREEN LEAVES: 8.50 ± 0.41
Corn plants ('FAO700') [4]; 1 g/L spray
  AVERAGE NUMBER OF GREEN LEAVES: 8.50 ± 0.25
Corn plants ('FAO700') [5]; 1 g/L seed treatment
  AVERAGE NUMBER OF GRAINS PER COB: 542.89 ± 41.22
Corn plants ('FAO700') [5]; 1 g/L spray
  AVERAGE NUMBER OF GRAINS PER COB: 511.34 ± 19.70
Corn plants ('FAO700') [5]; 1 g/L, row 4
  increase in total number of grains per corn cob compared to 100% water irrigation: 2%
